Data from patent US11072605B2, “Crystalline brexpiprazole” (Hexal Aktiengesellschaft, priority 2017, dated 2021).

Assay: Particle size distribution by laser diffraction (Malvern Mastersizer 3000)
Type: physicochemical
Conditions: aqueous suspension, after ultrasonification
Protocol: For the purpose of this invention, particle size distribution (PSD) is determined as the percent volume at each particle size and measured by a laser diffraction method in the context of a circulating aqueous suspension.
A Malvern Mastersizer 3000 laser diffraction analyzer equipped with a Hydro EV measurement cell was used. About 50 mg of sample were filled into a 15 ml glass test tube. The sample was wetted with two drops of Tween 80 and vortexed. Then the thoroughly wetted sample was dispersed in about 7 mL of UHQ-water by vortexing until the particles were dispersed. The suspension was treated for 7 minutes in an ultrasonification bath at RT (Elma S50H). The well dispersed suspension was then measured in water by adding a sample from the center of the test tube containing the well dispersed suspension to a water-filled dispersion unit prefilled with 70 mL of water. The sample in the 70 mL dispersion unit was kept under stirring at 2000 rpm. More sample from the test tube was added, until a targeted obscuration range of 10-25 percent was achieved. The Malvern Mastersizer was operated using the following parameters:
Particle size distribution was measured with a Malvern Mastersizer 3000 laser diffraction analyzer equipped with a Hydro EV measurement cell. About 50 mg of sample were given into a test tube. The sample was wetted with two drops of Tween 80 and dispersed in about 7 ml of water on a Vortexer. The suspension was treated for 7 minutes in a ultrasonification bath (Elma S50H). The well dispersed suspension was afterwards measured in water at a targeted obscuration range of 10-25 percent while circulating the aqueous suspension and stirring the suspension reservoir at 2000 rpm after a waiting period of three minutes. A fraunhofer optical model was utilized to deconvolute the sample scattering patterns to yield the resultant particle size distributions. Analysis model: General purpose/normal sensitivity. Measuring/background time: about 10 sec

Row | Compound | d(4,3) volume mean diameter | d(10) (volume distribution) | d(90) (volume distribution) | d(50) (volume distribution) [μm]
1 | O=c1ccc2ccc(OCCCCN3CCN(c4cccc5sccc45)CC3)cc2[nH]1 [(i)] | D(4.3): 19 μm | D(10): 1.5 μm | D(90): 42 μm | –
2 | O=c1ccc2ccc(OCCCCN3CCN(c4cccc5sccc45)CC3)cc2[nH]1 [(ii)] | D(4.3): 30 μm | D(10): 1.3 μm | D(90); 79 μm | –
3 | O=c1ccc2ccc(OCCCCN3CCN(c4cccc5sccc45)CC3)cc2[nH]1 [Compound I, 7-[4-[4-(1-Benzothiophen-4-yl)piperazin-1-yl]butoxy]quinolin-2(1H)-one, reference compound] | – | 0.8 μm | 10.8 μm | 3
